Assay results published in patent US20250099580A1, “TREATMENT OF GASTRIC CANCER AND/OR GASTROESOPHAGEAL JUNCTION CANCER” (AstraZeneca AB, priority 2023, published 2025).

What was measured:
[1] = Phase III study, interim analysis: adverse events (safety analysis set); type: in vivo
Description: (§1) A randomized, double-blind, placebo-controlled, multicenter, global Phase III study is conducted to assess the efficacy and safety of neoadjuvant-adjuvant durvalumab in combination with FLOT chemotherapy followed by adjuvant durvalumab monotherapy in patients with resectable GC/GEJC (i.e., radical-surgery eligible; >T2 N0-3 M0 or T0-4 N1-3 M0, per AJCC 8th edition). Patients were randomized in a 1:1 ratio to each of the following treatment arms (see FIGS. 1A and 1B): • Treatment Arm A: durvalumab 1500 mg on Day 1+FLOT on Days 1 and 15 of Q4W, both agents being adminstered for 4 cycles (2 cycles neoadjuvant+2 cycles adjuvant) followed by durvalumab 1500 mg on Day 1 Q4W for 10 additional cycles. • Treatment Arm B: placebo on Day 1+FLOT on Days 1 and 15 of Q4W, both agents being adminstered for 4 cycles (2 cycles neoadjuvant+2 cycles adjuvant) followed by placebo on Day 1 Q4W for 10 additional cycles.
An adverse event (AE) can therefore be any unfavorable and unintended sign (e.g., an abnormal laboratory finding), symptom (for example nausea, chest pain), or disease temporally associated with the use of a medicinal product, whether or not considered related to the medicinal product. The term AE is used to include both serious and non-serious AEs and can include a deterioration of a pre-existing medical occurrence. An AE may occur at any time, including run-in or washout periods, even if no study intervention has been administered.
Definitions of serious adverse event: A serious adverse event is an AE occurring during any study phase (i.e., run-in, treatment, washout, follow-up), that fulfils one or more of the following criteria: results in death, is immediately life-threatening, requires in-patient hospitalization or prolongation of existing hospitalization, results in persistent or significant disability or incapacity, is a congenital abnormality or birth defect, or is an important medical event that may jeopardize the patient or may require medical treatment to prevent one of the outcomes listed above.
Adverse events are coded using the most recent version of the Medical Dictionary for Regulatory Activities (MedDRA). AEs are presented for each treatment group by SOC and/or PT, covering number and percentage of subjects reporting at least one event and number of events where appropriate. […]
Safety and tolerability are assessed in terms of AEs (including SAEs), deaths, laboratory data, vital signs, ECGs, and exposure. […]
Interim analysis was conducted after all randomised patients underwent or were precluded from surgery. Superiority of pCR rate (α=0.1% [2-sided]) by central review was assessed. Surgical and safety outcomes were also assessed.

[2] = system: resectable gastric and gastroesophageal junction cancer (GC/GEJC); test: Phase III study, interim analysis: surgery rate and R0 resection rate; type: in vivo, human
Description: A randomized, double-blind, placebo-controlled, multicenter, global Phase III study is conducted to assess the efficacy and safety of neoadjuvant-adjuvant durvalumab in combination with FLOT chemotherapy followed by adjuvant durvalumab monotherapy in patients with resectable GC/GEJC (i.e., radical-surgery eligible; >T2 N0-3 M0 or T0-4 N1-3 M0, per AJCC 8th edition). Patients were randomized in a 1:1 ratio to each of the following treatment arms (see FIGS. 1A and 1B): • Treatment Arm A: durvalumab 1500 mg on Day 1+FLOT on Days 1 and 15 of Q4W, both agents being adminstered for 4 cycles (2 cycles neoadjuvant+2 cycles adjuvant) followed by durvalumab 1500 mg on Day 1 Q4W for 10 additional cycles. • Treatment Arm B: placebo on Day 1+FLOT on Days 1 and 15 of Q4W, both agents being adminstered for 4 cycles (2 cycles neoadjuvant+2 cycles adjuvant) followed by placebo on Day 1 Q4W for 10 additional cycles. Surgical eligibility was assessed after neoadjuvant treatment and within 28 days prior to surgery. Surgery performed was gastrectomy or gastroesophagectomy with at least D1 lymphadenectomy (D2 lymphadenectomy recommended), as determined by the attending surgeon based on the intraoperative findings. Surgery was no earlier than 4 weeks but within 8 weeks after the last dose of neoadjuvant therapy. Patients must have recovered from all acute, reversible toxic effects from FLOT chemotherapy (excluding alopecia) and durvalumab (or placebo) that could potentially adversely impact the surgical procedure. Radical gastrectomy or gastroesophagectomy was performed for patients who met the surgery eligibility criteria by a board certified surgeon no earlier than 28 days (4 weeks) but within 56 days (8 weeks) after the last dose of neoadjuvant therapy. (Surgery >8 weeks after the last dose of neoadjuvant therapy may be permitted in consultation with the Sponsor). The recommendations of ESMO and NCCN for the resectability of GC/GEJC was followed. The surgery was be performed by a board certified gastric surgeon, who should perform gastric surgery as a prominent part of his/her practice. Surgery rate is analyzed using the same methodology as described for the pCR rate. R0 resection (margin-negative resection) rate is analyzed using the same methodology as described for the pCR rate. Surgery status is determined by a patient receiving gastrectomy or gastroesophagectomy (yes/no). Surgery rate is defined as the proportion of patients who undergo gastrectomy or gastroesophagectomy. R0 resection is determined by pathology review. R0 resection rate is defined as the proportion of patients who have a confirmed complete resection (i.e., received margin-negative surgery [R]) as assessed by pathology review. Interim analysis was conducted after all randomised patients underwent or were precluded from surgery. Superiority of pCR rate (α=0.1% [2-sided]) by central review was assessed. Surgical and safety outcomes were also assessed.

[3] = system: resectable gastric and gastroesophageal junction cancer (GC/GEJC); test: Phase III study, interim analysis: pathological response (pCR, pnCR, downstaging) by pathology review after neoadjuvant therapy; type: in vivo, human
Description: As used herein, the terms “combined pathological complete response/near-complete pathological response” or “pnCR” refer to the proportion of patients who only have single cells or rare small groups of cancer cells present in the resected specimens as determined by pathology review. […] The Ryan Scoring system is based on the ratio of residual cancer cells to the amount of fibrosis, and ranges from 1 (complete or near-complete response) to 3 (poor or not response to neoadjuvant therapy). As used herein, the terms “pathological complete response” or “pathological CR” or “pCR” refer to the proportion of patients who have no residual viable tumor in the resected specimens and as determined by pathology review. As used herein, the terms “event-free survival” or “EFS” refer the time from the date of randomization until the date of one of the following events, whichever occurs first: (1) first documented progression that precludes surgery or requires non-protocol therapy; (2) first evidence of documented recurrence of disease post-surgery in patients who had margin-negative surgery (R0); (3) first evidence of documented progression of disease post-surgery in patients with margin-positive surgery (R1/R2); or (4) death due to any cause. EFS is determined according to RECIST 1.1 per BICR assessment and/or locally by pathology testing.
as §1
Patients were stratified according to geographic region (Asia versus non-Asia), clinical lymph node status (positive versus negative), and PD-L1 expression status (TIP/TAP≥1% versus TIP/TAP<1%). Patients provided a tumor tissue sample at screening (newly acquired or archived sample <3 months old) to determine PD-L1 status using the Tumor and/or Immune Cell Positivity (TIP) scoring method (defined as proportion of tumor area occupied by tumor cells with membrane and immune cells with cytoplasmic/membrane PD-L1 staining at any intensity) by the Ventana SP263 PD-L1 immunohistochemistry (IHC) assay for stratification in which: TIP/TAP≥1% PD-L1 is considered as high, and TIP/TAP<1% PD-L1 is considered low.
Neoadjuvant therapy begins following completion of the screening period/randomization, and patients undergo resection surgery about 4 to about 8 weeks after the last dose of neoadjuvant therapy (surgery >8 weeks after the last dose of neoadjuvant therapy may be permitted). Adjuvant therapy begins about 4 weeks to about 12 weeks post-surgery (based on the patient's recovery period). In this Phase III study, the administration of durvalumab and a FLOT chemotherapy prior to surgery, followed by further administration of durvalumab and a FLOT chemotherapy after surgery, was investigated to determine if this therapy regimen can improve activity and therefore long-term clinical outcomes for patients with resectable GC and/or resectable GEJC.
Eligible patients received 1500 mg durvalumab or placebo on Day 1 in combination with FLOT chemotherapy on Days 1 and 15 for 2 cycles Q4W as neoadjuvant therapy. […]

PD-L1 = PD-L1 (Homo sapiens, UniProt Q9NZQ7); settings: in vitro; cited from earlier work
PD-L1, sequence (Q9NZQ7 19-290): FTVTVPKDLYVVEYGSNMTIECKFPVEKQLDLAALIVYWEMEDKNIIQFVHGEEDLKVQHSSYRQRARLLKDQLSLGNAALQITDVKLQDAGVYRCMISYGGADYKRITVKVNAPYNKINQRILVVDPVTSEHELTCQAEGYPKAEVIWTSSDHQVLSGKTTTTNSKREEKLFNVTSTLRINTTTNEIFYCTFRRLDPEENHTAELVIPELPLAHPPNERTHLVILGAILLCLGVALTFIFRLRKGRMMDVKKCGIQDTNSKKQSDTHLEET

[4] = system: tumor growth in a xenograft model; settings: T-cell dependent mechanism; cited from earlier work
[5] = Central Review (BICR), n = 474 per arm
[6] = D + FLOT versus P + FLOT, p < 0.00001
[7] = Investigator Assessment, n = 474 per arm
[8] = central assessment, n = 474 per arm

D + FLOT: durvalumab 1500 mg Day 1 Q4W plus FLOT (5-FU + leucovorin + oxaliplatin + docetaxel) Days 1 and 15, neoadjuvant-adjuvant, then durvalumab monotherapy
AE Grade 3/4, (%) ([1]; safety analysis set): (68.6) % | Grade 3/4 TRAE, (%) ([1]; safety analysis set): (57.9) % | TRAE (treatment-related AE), (%) ([1]; safety analysis set): (95.2) % | AE, (%) ([1]; safety analysis set: D + FLOT n = 475, P + FLOT n = 469): (98.9) % | Surgery rate [2]: 87% | Surgery performed, OR (95% CI) ([2]; D + FLOT versus P + FLOT): 1.23 (0.85-1.76) | R0 resection, OR (95% CI) ([2]; D + FLOT versus P + FLOT, in pts with surgery): 1.00 (0.68-1.48) | R0 resection rate ([2]; in patients who underwent surgery): 86% | R0 resection, % ([2]; in pts with surgery: D + FLOT n = 430, P + FLOT n = 422): 85.8% | Surgery performed, % ([2]; n = 474 per arm): 86.7% | Combined pCR/near-complete pathological response (pnCR) rate [3]: 27% | increase in major response versus Placebo+FLOT chemotherapy alone [3]: 12.4% | pCR Difference in response rate (%) ([3]; Central Review (BICR), Durva + FLOT − Placebo + FLOT): 12.0% | pCR N Responses [3, 5]: 91 | pCR Response rate % [3, 5]: 19.2% | pCR Odds ratio ([3]; Central Review (BICR), stratified Cochran-Mantel-Haenszel test, 2-sided p <0.00001): 3.08 | pCR, OR (95% CI) [3, 6]: 3.08 (2.03-4.67); p < 0.00001 | pCR/pnCR, OR (95% CI) [3, 6]: 2.19 (1.58-3.04); p < 0.00001 | Major pathological response, Difference in response rate (%) ([3]; Durva + FLOT − Placebo + FLOT): 12.4% | pCR (BICR) by subgroups ([3]; FIG. 2, odds ratio>1 favours durvalumab): consistent across evaluable subgroups | major pathological response (complete or near-complete response BICR) by subgroups ([3]; FIG. 3, odds ratio>1 favours durvalumab): consistent across evaluable subgroups | pCR Difference in response rate (%) ([3]; Investigator Assessment, Durva + FLOT − Placebo + FLOT): 13.3% | pCR N Responses [3, 7]: 103 | pCR Response rate % [3, 7]: 21.7% | pCR Odds ratio ([3]; Investigator Assessment, stratified Cochran-Mantel-Haenszel test, 2-sided p <0.00001): 3.03 | Downstaging, pN0 ([3]; by central review): 47% | Downstaging, pT0 ([3]; by central review): 21% | Major pathological response (complete or near-complete) N Responses [3, 8]: 127 | Major pathological response rate % [3, 8]: 26.8% | pCR rate ([3]; central review, interim analysis): 19% | pCR/pnCR, % ([3]; n = 474 per arm): 26.8% | pCR, % ([3]; n = 474 per arm, interim analysis): 19.2% | Major pathological response, Odds ratio ([3]; stratified Cochran-Mantel-Haenszel test, 2-sided p <0.00001): 2.19 | increase in pCR rate from addition of durvalumab to FLOT ([3]; versus Placebo): 12% | pCR odds ratio [OR] ([3]; versus Placebo, p<0.00001): 3.08

Durvalumab: antibody that selectively binds PD-L1 and blocks the binding of PD-L1 to the PD-1 and CD80 receptors
effect on PD-L1-mediated suppression of human T-cell activation (PD-L1): relieve PD-L1-mediated suppression of human T-cell activation in vitro | tumor growth [4]: inhibits tumor growth
